In assay [1] the target is T1, wild type HCV NS3/4A 1b protease enzyme (Hepatitis C virus genotype 1b, UniProt P26663).
T1 construct: 10× stocks of NS3/4A protease enzyme from Bioenza (Mountain View, Calif.); purchased Bioenza (Mountain View, Calif.)
The assay is described as follows: HCV Protease FRET Assay (IC50_APP), wild type. The format is biochemical. The settings on record: read-out: IC50_APP, WT; apparent IC50, wild type NS3/4A 1b. The procedure: (§1) HCV Protease FRET Assay for WT and Mutated NS3/4A 1b Enzymes (IC50—APP).
(§2) The following protocol was used to generate “apparent” IC50 (IC50—APP) values as depicted in Table 6, below. […] 5 μL of each enzyme were added to Corning (#3575) 384-well, black, microtiter plates (Corning, N.Y.) after spotting a 0.5 μL volume of 50% DMSO and serially diluted compounds prepared in 50% DMSO. Protease reactions were immediately started after enzyme addition with the addition of 45 μL of the FRET substrate and monitored for 60-90 minutes at λex485/λem520 in a Synergy^4 plate reader from BioTek (Winooski, Vt.). At the conclusion of each assay, progress curves from each well were examined for linear reaction kinetics and fit statistics (R^2, 95% confidence intervals, absolute sum of squares).
(§3) The compound numbers correspond to the compound numbers in Table 3. […] ;

Assay [2] has as its system HCV RNA replicon in cell line ET (luc-ubi-neo/ET), human Huh7 hepatoma. Put plainly: Method A: HCV RNA replicon antiviral assay (luciferase, ET cell line). The format is cell-based, Hepatitis C virus. As to conditions: Hepatitis C virus, Huh-7, assay described in Example 22; for IC50: read-out: Replicon (IC50). The method, then:
The compounds were assayed to evaluate the antiviral activity and cytotoxicity of compounds in vitro using HCV RNA replicons. This assay used the cell line ET (luc-ubi-neo/ET), which is a human Huh7 hepatoma cell line that contains an HCV RNA replicon with a stable luciferase (Luc) reporter and three cell culture-adaptive mutations. […]
The ET cell line was grown in Dulbecco's modified essential media (DMEM), 10% fetal bovine serum (FBS), 1% penicillin-streptomycin (pen-strep), 1% glutamine, 250 μg/ml G418 in a 5% CO2 incubator at 37° C. All cell culture reagents were obtained from Mediatech (Manassas, Va.). Cells were trypsinized (1% trypsin:EDTA) and plated out at 5×10^3 cells/well in white 96-well assay plates (Costar) dedicated to cell number (cytotoxicity) or antiviral activity assessments. Drugs were added at six 3-fold concentrations each and the assay was run in DMEM, 5% FBS, 1% pen-strep, 1% glutamine. Human interferon alpha-2b (PBL Biolabs, New Brunswick, N.J.) was included in each run as a positive control compound. Cells were processed 72 hr post drug addition when the cells are still subconfluent. Antiviral activity was measured by analyzing replicon-derived luciferase activity using the Steady-Glo Luciferase Assay System (Promega, Madison, Wis.) according to manufacturer's instruction. The number of cells in each well was determined by CytoTox-1 reagent (Promega). Compound profile was derived by calculating applicable EC50 (effective concentration inhibiting virus replication by 50%), EC90 (effective concentration inhibiting virus replication by 90%), IC50 (concentration decreasing cell viability by 50%) and SI50 (selective index: […]) values.
In general terms: A replicon is a self-replicating genome or part of one, used to study replication in cells.

Assay [3] concerns the target T2, D168A mutant of the HCV NS3/4A 1b protease enzyme (Hepatitis C virus genotype 1b, UniProt P26663, D1194A).
T2 construct: 10× stocks of NS3/4A protease enzyme from Bioenza (Mountain View, Calif.); purchased Bioenza (Mountain View, Calif.)
The assay is described as follows: HCV Protease FRET Assay (IC50_APP), D168A mutant. It counts as biochemical. As to conditions: apparent IC50, D168A mutant; read-out: IC50_APP, HCV D168A. The procedure: as §1, §2, §3

Assay [4] addresses T3, A156T mutant of the HCV NS3/4A 1b protease enzyme (Hepatitis C virus genotype 1b, UniProt P26663, A1182T).
T3 construct: 10× stocks of NS3/4A protease enzyme from Bioenza (Mountain View, Calif.); purchased Bioenza (Mountain View, Calif.)
The assay is described as follows: HCV Protease FRET Assay (IC50_APP), A156T mutant. The format is biochemical. The settings on record: apparent IC50, A156T mutant; read-out: IC50_APP, HCV A156T. The method, then: as §1, §2, §3

The IC90 is the concentration needed for an effect of 90%. A high value points to a need for much substance.

Regarding `C=CC(=O)N[C@H](C(=O)N1C[C@H](Oc2cc(-c3ccccc3)nc3cc(OC)ccc23)C[C@H]1C(=O)N[C@]1(C(=O)NS(=O)(=O)c2ccccc2)C[C@H]1C=C)C(C)C` [Compound I-60, (2S,4R)-1-((S)-2-acrylamido-3-methylbutanoyl)-N-((1R,2S)-1-(phenylylsulfonylcarbamoyl)-2-vinylcyclopropyl)-4-(7-methoxy-2-phenylquinolin-4-yloxy)pyrrolidine-2-carboxamide], the IC50 was in the range of 10 to 100 nM in assay [1], 10 to 100 nM in assay [2], 1000 to 10000 nM in assay [3] and 100 to 1000 nM in assay [4]. In assay [2], the IC90 fell in the range of 100 to 1000 nM.

With `C#Cc1ccc(S(=O)(=O)NC(=O)[C@@]2(NC(=O)[C@@H]3C[C@@H](Oc4cc(-c5ccccc5)nc5cc(OC)ccc45)CN3C(=O)[C@H](CNC(=O)C=C)NC(=O)OC(C)(C)C)C[C@H]2C=C)cc1` [Compound I-61, t-butyl-(S)-3-acrylamido-1-((2S,4R)-2-((1R,2S)-1-(4-ethynylphenylsulfonylcarbamoyl)-2-vinylcyclopropylcarbamoyl)-4-(7-methoxy-2-phenylquinolin-4-yloxy)pyrrolidin-1-yl)-1-oxopropan-2-ylcarbamate], the IC50 in assay [1] was 10 to 100 nM; in assay [2], 100 to 1000 nM; in assay [3], 1000 to 10000 nM; in assay [4], 1000 to 10000 nM. Moreover, the IC90 in assay [2] is 1000 to 10000 nM.

For the compound `C=C[C@@H]1C[C@]1(NC(=O)[C@@H]1CC(Oc2cc(-c3ccccc3)nc3cc(OC)ccc23)CN1C(=O)OC(C)(C)C)C(=O)NS(=O)(=O)C1CC1` (stereo partly shown) [Compound I-62], the IC50 in assay [1] is less than 10 nM; in assay [2], 10 to 100 nM; in assay [3] it was 1000 to 10000 nM; in assay [4], 100 to 1000 nM. Besides, the IC90 in assay [2] was 100 to 1000 nM.

`C=CC(=O)O[C@H](C)[C@H](NC(=O)OC(C)(C)C)C(=O)N1C[C@H](Oc2cc(-c3ccccc3)nc3cc(OC)ccc23)C[C@H]1C(=O)N[C@]1(C(=O)NS(=O)(=O)C2CC2)C[C@H]1C=C` [Compound I-64, t-butyl-(2S,3R)-3-acryloxy-1-((2S,4R)-2-((1R,2S)-1-(cyclopropylsulfonylcarbamoyl)-2-vinylcyclopropylcarbamoyl)-4-(7-methoxy-2-phenylquinolin-4-yloxy)pyrrolidin-1-yl)-1-oxobutan-2-ylcarbamate]: the IC50 was less than 10 nM in assay [1], 100 to 1000 nM in assay [2], 10 to 100 nM in assay [3] and 10 to 100 nM in assay [4]. Further, the 90% effect concentration (IC90) in assay [2] lay within 100 to 1000 nM.

Regarding `C=CC(=O)N[C@@H](C(=O)N1C[C@H](Oc2cc(-c3ccccc3)nc3cc(OC)ccc23)C[C@H]1C(=O)N[C@]1(C(=O)NS(=O)(=O)C2CC2)C[C@H]1C=C)c1ccccc1` [Compound I-66, (2S,4R)-1-((R)-2-acrylamido-phenylacetyl)-N-((1R,2S)-1-(cyclopropylsulfonylcarbamoyl)-2-vinylcyclopropyl)-4-(7-methoxy-2-phenylquinolin-4-yloxy)pyrrolidine-2-carboxamide], the IC50 in assay [1] was less than 10 nM; in assay [2], 10 to 100 nM; in assay [3] it was 100 to 1000 nM; in assay [4], 100 to 1000 nM. In addition, the IC90 in assay [2] was 100 to 1000 nM.

`C=C[C@@H]1C[C@]1(NC(=O)[C@@H]1C[C@@H](Oc2cc(-c3ccccc3)nc3cc(OC)ccc23)CN1C(=O)[C@H](CCC(=O)N[C@@H]1C(=O)O[C@@H]1C)NC(=O)OC(C)(C)C)C(=O)NS(=O)(=O)C1CC1` [Compound I-67, t-butyl-(2S)-1-((2S,4R)-2-((1R,2S)-1-(cyclopropylsulfonylcarbamoyl)-2-vinylcyclopropylcarbamoyl)-4-(7-methoxy-2-phenylquinolin-4-yloxy)pyrrolidin-1-yl)-5-((2R,3S)-2-methyl-4-oxooxetan-3-ylamino)-1,5-dioxopentan-2-ylcarbamate]: the IC50 is less than 10 nM in assay [1], 10 to 100 nM in assay [2], less than 10 nM in assay [3] and less than 10 nM in assay [4]. This compound showed an IC90 in assay [2] of 100 to 1000 nM.

With `C=C[C@@H]1C[C@]1(NC(=O)[C@@H]1C[C@@H](Oc2cc(-c3ccccc3)nc3cc(OC)ccc23)CN1C(=O)[C@H](CCC(=O)C=C(C)C)NC(=O)OC(C)(C)C)C(=O)NS(=O)(=O)C1CC1` [Compound I-68, tert-butyl-(S)-1-((2S,4R)-2-((1R,2S)-1-(cyclopropylsulfonylcarbamoyl)-2-vinylcyclopropylcarbamoyl)-4-(7-methoxy-2-phenylquinolin-4-yloxy)pyrrolidin-1-yl)-7-methyl-1,5-dioxooct-6-en-2-ylcarbamate], the IC50 in assay [1] was less than 10 nM; in assay [2], less than 10 nM; in assay [3] it was 100 to 1000 nM; in assay [4], 100 to 1000 nM. Further, in assay [2], the IC90 fell in the range of 10 to 100 nM.

Consider `C=C[C@@H]1C[C@]1(NC(=O)[C@@H]1C[C@@H](Oc2cc(-c3ccccc3)nc3cc(OC)ccc23)CN1C(=O)[C@H](CCC(=O)N1CCC1=O)NC(=O)OC(C)(C)C)C(=O)NS(=O)(=O)C1CC1` [Compound I-70, t-butyl-(2S)-1-((2S,4R)-2-((1R,2S)-1-(cyclopropylsulfonylcarbamoyl)-2-vinylcyclopropylcarbamoyl)-4-(7-methoxy-2-phenylquinolin-4-yloxy)pyrrolidin-1-yl)-5-(2-oxoazetidinyl)-1,5-dioxopentan-2-ylcarbamate], for which the IC50 in assay [1] is less than 10 nM; in assay [2], 100 to 1000 nM; in assay [3] it was less than 10 nM; in assay [4] it was less than 10 nM. The same compound showed an IC90 in assay [2] of 100 to 1000 nM.

Consider `C#CCOC(=O)N[C@@H](CN(C)C(=O)CCCl)C(=O)N1C[C@H](Oc2cc(-c3ccccc3)nc3cc(OC)ccc23)C[C@H]1C(=O)N[C@]1(C(=O)NS(=O)(=O)C2CC2)C[C@H]1C=C` [Compound I-71], for which the IC50 is less than 10 nM in assay [1], 100 to 1000 nM in assay [2], 100 to 1000 nM in assay [3] and 100 to 1000 nM in assay [4]. The compound also yielded a concentration for an effect of 90% (IC90) in assay [2] of 100 to 1000 nM.

As to `C=CC(=O)N(C)C[C@H](NC(=O)OC1CCCC1)C(=O)N1C[C@H](Oc2cc(-c3ccccc3)nc3cc(OC)ccc23)C[C@H]1C(=O)N[C@]1(C(=O)NS(=O)(=O)C2CC2)C[C@H]1C=C` [Compound I-72], the IC50 in assay [1] was less than 10 nM; in assay [2], less than 10 nM; in assay [3] it was 100 to 1000 nM; in assay [4], 100 to 1000 nM. For the same compound, the IC90 in assay [2] was 10 to 100 nM.

For the compound `C=CC(=O)N(C)C[C@H](NC(=O)OC(C)(C)C)C(=O)N1C[C@H](Oc2nccc3ccc(Br)cc23)C[C@H]1C(=O)N[C@]1(C(=O)NS(=O)(=O)C2CC2)C[C@H]1C=C` [Compound I-84, tert-butyl-(S)-1-((2S,4R)-4-(7-bromoisoquinolin-1-yloxy)-2-((1R,2S)-1-(cyclopropylsulfonylcarbamoyl)-2-vinylcyclopropylcarbamoyl)pyrrolidin-1-yl)-3-(N-methylacrylamido)-1-oxopropan-2-ylcarbamate], the IC50 was less than 10 nM in assay [1], 10 to 100 nM in assay [2], 100 to 1000 nM in assay [3] and 100 to 1000 nM in assay [4]. The compound also gave an IC90 in assay [2] of 100 to 1000 nM.

These data come from US8309685B2 (Celgene Avilomics Research, Inc., priority 2007, dated 2012).
